Results on one compound are retold here after article PMC6321136, “Combined In Vitro Studies and in Silico Target Fishing for the Evaluation of the Biological Activities of Diphylleia cymosa and Podophyllum hexandrum” (Molecules, 2018).

One series relates to Anti-Inflammatory model. Also on record: method as in PubChem Bioassay AID 457. The conditions noted are these: ref PubChem Bioassay AID 457; cited from earlier work.
For series [1], the system named is Antagonist, thyroid receptor (TR). More on the design: method as in PubChem Bioassay AID 743067. The conditions noted are these: ref PubChem Bioassay AID 743067; cited from earlier work.
For series [2], the system named is Cytotoxicity, Agonist, peroxisome proliferator-activated receptor delta (PPARd). More on the design: method as in PubChem Bioassay AID 743211. The conditions noted are these: ref PubChem Bioassay AID 743211; cited from earlier work.
Series [3] has as its system Escherichia coli ATCC 11775. The series is described as follows: Antibacterial microdilution assay. The format is cell-based. The conditions noted are these: ATCC11775, read-out: E. coli Mean ± SD (percentage of inhibition of microbial growth). How it is done: (§1) Antibacterial susceptibility was performed using the modified microdilution method for bacteria, against Gram-positive (Staphylococcus aureus ATCC 25923 and Bacillus cereus ATCC 11778) and Gram-negative recognized pathogens (Escherichia coli ATCC 11775, Enterohemorrhagic E. coli ATCC 43895-EHEC, Pseudomonas aeruginosa ATCC 10145 and Salmonella choleraesuis subs. choleraesuis sorotype Typhi BM/Panama-TY2).
(§2) The experiments were performed in 96 well microplates. The extracts and isolated substance solubilized in DMSO (Vetec^TM) at 50 mg/mL were diluted in Mueller Hinton Broth (MHB, Difco) at a concentration of 500 µg/mL. The bacterial isolates, criopreserved at −80 °C were grown in Tryptic Soy Agar (TSA, Acumedia®) plates, at 37 °C for 18–24 h. The inoculum was adjusted in saline solution in a spectrophotometer at 625 nm, to a concentration of 1–5 × 10^8 CFU/mL and then diluted in MHB to 1–5 × 10^5 CFU/mL.
(§3) Volumes of 100 μL of the inoculum were added to wells containing 100 μL of the extracts at […], in triplicate (one well intended for extract control), resulting in a final concentration of 250 μg/mL. Chloramphenicol at 50 μg/mL and 0.5% DMSO were used as positive and negative controls, respectively. Evaluation of microbial growth was carried out by adding the inoculum to a well containing only MHB. Sterility of the culture medium was also confirmed by incubation in the assay plate. Assays were performed in triplicate. The microplates were incubated at 37 °C for 24 h. As an indicator of microbial growth, 20 μL of 2,3,5-triphenyltetrazolium chloride (TTC, Sigma-Aldrich, St. Louis, MO, USA) at 5 mg/mLwere added to each well. The plates were incubated at 37 °C for 3 h and then the TTC was solubilized with 100 μL of sodium lauryl sulfate solution in isopropanol 7 μg/mL and measured in a microplate reader at 485 nm. The result was expressed as the percentage of inhibition compared with the microbial growth control, and was considered positive for antibacterial activity for those extracts with an inhibition higher than 50%.
On the technique in general: In broth dilution the organism is exposed to a series of concentrations in liquid medium.

The test system of series [4] is Staphylococcus aureus ATCC 25923. Put plainly: Antibacterial microdilution assay. The format is cell-based. To be noted: ATCC25923, read-out: S. aureus Mean ± SD (percentage of inhibition of microbial growth). How it is done: as §1, §2, §3
For series [5], the system named is Pseudomonas aeruginosa ATCC 10145. Put plainly: Antibacterial microdilution assay. The format is cell-based. On the procedure: as §1, §2, §3
Series [6] has as its system Bacillus cereus ATCC 11778. The series is described as follows: Antibacterial microdilution assay. The format is cell-based. To be noted: ATCC11778, read-out: B. cereus Mean ± SD (percentage of inhibition of microbial growth). On the procedure:
as §1, §2, §3

Series [7] concerns ADMET, Cytochrome P450 3A4. Also on record: method as in PubChem Bioassay AID 884. The conditions noted are these: ref PubChem Bioassay AID 884; cited from earlier work.
The subject of series [8] is Agonist, androgen receptor (AR). More on the design: method as in PubChem Bioassay AID 743040. To be noted: ref PubChem Bioassay AID 743040; cited from earlier work.
In series [9] the test system is Cytotoxicity, Agonist, vitamin D receptor (VDR). Also on record: method as in PubChem Bioassay AID 743224. To be noted: ref PubChem Bioassay AID 743224; cited from earlier work.
In series [10] the test system is Activate, aryl hydrocarbon receptor (AhR). More on the design: method as in PubChem Bioassay AID 743122. The conditions noted are these: ref PubChem Bioassay AID 743122; cited from earlier work.
Series [11] can be described thus: Thiobarbituric acid reactive substances (TBARS) assay. More on the design: species or system bovine. On the procedure: The evaluation of antioxidant activity using the TBARS assay, with adaptations. Briefly, the samples were solubilized in methanol (50.0 to 31.25 μg/mL) and a portion of 25 μL of each extract solution was added to 10 mL test tubes in triplicate (two reaction tubes and one control). The tubes corresponding to the blank, negative and positive controls were prepared by adding 25 μL of deionized water, MeOH or propylgalate (Sigma, St. Louis, MO, USA, 0.1 mM), respectively. The phospholipid liposomes were prepared using bovine brain extract type VII (Sigma Aldrich, St. Louis, MO, USA, 10 mg/mL) in phosphate buffered saline (PBS) solution. The suspension was subjected to an ultrasonic bath until the formation of the liposomes. […] The butanolic phase was removed and transferred to a 96-well microplate, and the absorbance was recorded on a Multiskan Go microplate reader (Thermo Scientific, Whaltham, MA, USA) at 532 nm. The percentage of inhibition (%I) of lipid peroxidation was calculated as: %I = ((AC − AS)/AC) × 100 where AC is the absorbance of control, AS is the absorbance of samples. Assays were performed in triplicate and IC50 values were determined by non-linear regression using GraphPad Prism, version 6.0 (GraphPad Software, San Diego, CA, USA). […]

As a reminder, the inhibition is the percentage by which the read-out fell short of the control. On to `COc1cc([C@@H]2c3cc4c(cc3[C@H](O)[C@H]3COC(=O)[C@H]23)OCO4)cc(OC)c1OC` [Podophyllotoxin, podophyllotoxin], for which the “Exper. Activity” value is “Inactive” in the series on Anti-Inflammatory model; “Active” in [1]; “Inactive” in series [2]; “Active” in series [7]; “Inactive” in series [8]; “Inactive” in series [9]. Also, the “Exper. Activity” value in [10] is “Active”. In addition, the inhibition at 250 µg/mL in series [3] turned out to be 51.6 ± 9.08%; in [4], 53.3 ± 8.8%; in series [5] (Pseudomonas aeruginosa, ATCC10145, read-out: P. aeruginosa Mean ± SD (percentage of inhibition of microbial growth)) it was 30.2 ± 9.39%; in [6], 0%. The “P. aeruginosa Mean ± SD (percentage of inhibition of microbial growth)” value in series [5] (250 µg/mL) was “No antibacterial activity”. For the same compound, the “Antioxidant Activity (IC50-µg/mL) TBARS Assay” value in series [11] was >50 µg/mL.
